Assay results from patent US20100190807A1, “CDKI Pathway inhibitors and uses thereof to regulate expression to TAU protein” (Senex Biotechnology, Inc., priority 2008, published 2010).

Molecular target: T1, NFκB (p50 and p65 subunits) (Homo sapiens, UniProt P19838+Q04206)
T1 construct: endogenous in cells; control or TNFα-treated
Experiment: TransAM NFκB p65 and p50 transcription factor assay (oligonucleotide binding)
Assay type: cell-based
From the text: The left set of bars represents cells treated with carrier control, the middle set represents cells treated with SNX2, and the right set represents cells treated with a known inhibitor of NFκB binding (TPCK).
We also tested if these compounds could act as the inhibitors of NFκB, by measuring cellular levels of p50 or p65 subunits binding oligonucleotides containing NFκB consensus binding site, using ACTIVE MOTIF TransAM™ NFκB p65 Chemi and NFκB p50 Chemi Transcription Factor Assay Kits.

T1 sequence (P19838 1-433 limits assumed): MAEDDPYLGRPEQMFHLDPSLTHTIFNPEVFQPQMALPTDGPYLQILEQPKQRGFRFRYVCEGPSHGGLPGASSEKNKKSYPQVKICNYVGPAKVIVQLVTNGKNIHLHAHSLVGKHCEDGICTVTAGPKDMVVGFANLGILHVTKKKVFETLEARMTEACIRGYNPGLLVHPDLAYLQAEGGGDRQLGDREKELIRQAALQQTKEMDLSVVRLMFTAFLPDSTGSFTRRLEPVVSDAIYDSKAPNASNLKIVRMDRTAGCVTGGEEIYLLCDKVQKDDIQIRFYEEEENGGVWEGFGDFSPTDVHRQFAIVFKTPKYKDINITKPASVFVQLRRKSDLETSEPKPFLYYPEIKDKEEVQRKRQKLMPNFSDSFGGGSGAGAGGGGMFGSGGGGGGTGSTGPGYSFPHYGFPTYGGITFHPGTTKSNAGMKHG
T1 sequence (Q04206 whole entry): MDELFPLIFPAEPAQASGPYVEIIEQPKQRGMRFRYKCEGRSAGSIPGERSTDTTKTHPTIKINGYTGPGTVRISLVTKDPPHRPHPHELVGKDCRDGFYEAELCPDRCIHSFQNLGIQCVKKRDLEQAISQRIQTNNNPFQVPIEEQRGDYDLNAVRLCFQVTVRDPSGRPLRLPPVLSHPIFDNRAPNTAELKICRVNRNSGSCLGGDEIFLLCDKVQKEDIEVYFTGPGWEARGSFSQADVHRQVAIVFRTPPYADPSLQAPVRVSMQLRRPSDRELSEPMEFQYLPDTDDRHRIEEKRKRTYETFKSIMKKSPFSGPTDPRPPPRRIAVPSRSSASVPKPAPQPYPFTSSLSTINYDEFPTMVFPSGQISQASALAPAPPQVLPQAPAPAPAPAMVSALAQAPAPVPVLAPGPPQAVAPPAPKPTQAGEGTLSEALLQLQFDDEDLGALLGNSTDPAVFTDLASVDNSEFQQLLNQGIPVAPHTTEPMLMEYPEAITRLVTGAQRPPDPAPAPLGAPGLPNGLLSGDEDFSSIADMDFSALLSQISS

Compound: Cc1ccc(S(=O)(=O)N[C@@H](Cc2ccccc2)C(=O)CCl)cc1 [TPCK]
- TNFα-induced NFκB activity (TNFα-treated cells): completely blocks
- basal NFκB activity (control cells): completely blocks
